In experiment [1] the test system is GABAA receptor transmembrane anesthetic binding sites. The conditions noted are these: cited from earlier work.
In experiment [2] the target is α1β3γ2L GABAA receptors (β+ – α− sites) (Homo sapiens, UniProt P14867+P18507+P28472). The experiment can be described thus: Inhibition of ^3[H]azi-etomidate photoaffinity labeling of purified receptors. The experiment is classed as binding. The conditions noted are these: read-out: IC50 for Inhibiting Photoaffinity Labeling by ^3[H]Azi-etomidate (95% CI); ~2 μM photolabel; 1 mM GABA (open/desensitized state).
α1β3γ2L GABAA receptors (β+ – α− sites), sequence (P14867 28-456): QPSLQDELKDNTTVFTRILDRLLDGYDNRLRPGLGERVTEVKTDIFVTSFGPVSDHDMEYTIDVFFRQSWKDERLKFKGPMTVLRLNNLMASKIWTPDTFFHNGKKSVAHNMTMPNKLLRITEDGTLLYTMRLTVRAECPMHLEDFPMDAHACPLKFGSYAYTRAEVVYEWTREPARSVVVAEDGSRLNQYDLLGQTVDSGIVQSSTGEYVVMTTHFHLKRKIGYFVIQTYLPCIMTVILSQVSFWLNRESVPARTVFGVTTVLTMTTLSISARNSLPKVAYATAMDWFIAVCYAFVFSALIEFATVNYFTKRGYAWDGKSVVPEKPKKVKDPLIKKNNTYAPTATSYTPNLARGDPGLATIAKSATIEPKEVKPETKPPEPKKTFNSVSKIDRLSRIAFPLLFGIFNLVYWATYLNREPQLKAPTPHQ
α1β3γ2L GABAA receptors (β+ – α− sites), sequence (P28472 26-473): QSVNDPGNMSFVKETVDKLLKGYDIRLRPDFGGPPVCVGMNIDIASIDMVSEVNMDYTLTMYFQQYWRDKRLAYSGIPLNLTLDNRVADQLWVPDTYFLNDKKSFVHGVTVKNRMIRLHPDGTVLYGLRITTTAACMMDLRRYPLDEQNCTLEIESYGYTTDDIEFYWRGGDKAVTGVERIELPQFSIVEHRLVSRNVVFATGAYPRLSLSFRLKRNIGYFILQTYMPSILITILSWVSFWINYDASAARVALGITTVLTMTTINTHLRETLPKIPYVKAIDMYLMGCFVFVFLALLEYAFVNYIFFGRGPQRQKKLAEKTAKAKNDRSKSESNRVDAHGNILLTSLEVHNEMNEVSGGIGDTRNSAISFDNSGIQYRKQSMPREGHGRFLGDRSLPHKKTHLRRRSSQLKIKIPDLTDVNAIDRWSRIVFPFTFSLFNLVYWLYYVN
α1β3γ2L GABAA receptors (β+ – α− sites), sequence (P18507 40-475): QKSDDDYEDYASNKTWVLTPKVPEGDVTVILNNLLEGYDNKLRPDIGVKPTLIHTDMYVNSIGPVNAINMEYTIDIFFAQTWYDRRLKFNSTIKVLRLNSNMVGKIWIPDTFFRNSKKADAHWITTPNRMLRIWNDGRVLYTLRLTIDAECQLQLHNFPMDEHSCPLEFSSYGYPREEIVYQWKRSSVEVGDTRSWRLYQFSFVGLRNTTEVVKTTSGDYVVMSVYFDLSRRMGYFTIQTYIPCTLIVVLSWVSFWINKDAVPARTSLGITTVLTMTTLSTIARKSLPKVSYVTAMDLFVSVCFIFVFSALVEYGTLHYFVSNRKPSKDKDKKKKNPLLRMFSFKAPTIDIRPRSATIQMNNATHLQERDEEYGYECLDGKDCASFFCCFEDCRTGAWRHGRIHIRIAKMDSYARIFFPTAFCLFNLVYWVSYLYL

A further experiment concerns the target α1β3γ2L GABAA receptors (Homo sapiens, UniProt P14867+P18507+P28472). The experiment is classed as cell-based. The conditions noted are these: 100 μM drug; wild-type receptors; n = 6 oocytes; EC5 GABA alone 4.4 ± 1.2%; P = 0.002.

α1β3γ2L GABAA receptors, sequence (P14867 28-456): as the sequence (P14867 28-456) above
α1β3γ2L GABAA receptors, sequence (P28472 26-473): as the sequence (P28472 26-473) above
α1β3γ2L GABAA receptors, sequence (P18507 40-475): as the sequence (P18507 40-475) above

Regarding `C=CC[C@@]1(c2cccc(C3(C(F)(F)F)N=N3)c2)C(=O)NC(=O)N(C)C1=O`, the “Selectivity of photolabel for its respective class of binding sites” value in experiment [1] is “more than 50 fold”.

For the compound `CCOC(=O)c1cncn1C(C)c1ccc2ccccc2c1` (stereo not drawn) [Naphthalene2-etomidate], in experiment [2], the IC50 was 77 µM. For the compound `CCOC(=O)c1cncn1C(C)c1cccc2ccccc12` (stereo not drawn) [Naphthalene-etomidate], at α1β3γ2L GABAA receptors, the “Peak amplitude of EC5 GABA-evoked current with drug” value is 10 ± 2.4 % of the current produced by 1 mM GABA. Turning to `CC(c1ccccc1)n1cncc1C(=O)OCCC1(C)N=N1` (stereo not drawn) [^3[H]azi-etomidate], in experiment [1], the “Selectivity of photolabel for its respective class of binding sites” value is listed as “more than 50 fold”.

For `CCOC(=O)c1cncn1[C@H](C)c1cccc(OC(C)C)c1` [m-Isopropoxy-etomidate], the IC50 in experiment [2] was found to be 210 µM.

Turning to `CCOC(=O)c1cncn1[C@H](C)c1ccc(Br)cc1` [p-Bromo-etomidate], the IC50 in experiment [2] stood at 8.1 µM. Still for that read-out and setting: to `CCOC(=O)c1cncn1[C@H](C)c1ccc(F)cc1` [p-Fluoro-etomidate] belongs 3.6 µM; to `CCOC(=O)c1cncn1[C@H](C)c1ccc(OC)cc1` [p-Methoxy-etomidate], 75 µM; to m-Dimethoxy-etomidate, 830 µM.
